Reference: PubChem BioAssay AID328 (DTP/NCI, 2004)
Toxic doses and inconclusive results are not listed.

System: BDF1 mice, P388 leukemia ip, median survival T/C
Experiment: NCI In Vivo Anticancer Drug Screen. Data for tumor model P388 Leukemia (intraperitoneal) in B6D2F1 (BDF1) mice
Conditions: endpoint: median survival time, higher = longer survival
In short: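 Vehicle-dosed animals serve as the reference; survival of compound-dosed, tumour-implanted mice is divided by it.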

[1] = dose: 100.0 mg/kg/injection, schedule: Q01DX009 (ip), vehicle: saline with Tween-80
[2] = dose: 200.0 mg/kg/injection, schedule: Q01DX009 (ip), vehicle: saline with Tween-80
[3] = dose: 50.0 mg/kg/injection, schedule: Q01DX009 (ip), vehicle: saline
[4] = dose: 100.0 mg/kg/injection, schedule: Q01DX009 (ip), vehicle: saline
[5] = dose: 200.0 mg/kg/injection, schedule: Q01DX009 (ip), vehicle: saline
[6] = dose: 6.25 mg/kg/injection, schedule: Q01DX009 (ip), vehicle: saline with Tween-80
[7] = dose: 12.5 mg/kg/injection, schedule: Q01DX009 (ip), vehicle: saline with Tween-80

Structure (SMILES): C1=CC2c3ccccc3C1c1ccccc12
- T/C (dose: 100.0 mg/kg/injection, schedule: Q01DX007 (sc), vehicle: olive oil, sesame oil, peanut oil): 91 % of control
- T/C (dose: 100.0 mg/kg/injection, schedule: Q04DX003 (sc), vehicle: olive oil, sesame oil, peanut oil): 100 % of control
- T/C (dose: 200.0 mg/kg/injection, schedule: Q01DX007 (sc), vehicle: olive oil, sesame oil, peanut oil): 104 % of control
- T/C (dose: 200.0 mg/kg/injection, schedule: Q04DX003 (sc), vehicle: olive oil, sesame oil, peanut oil): 90 % of control
- T/C (dose: 400.0 mg/kg/injection, schedule: Q01DX007 (sc), vehicle: olive oil, sesame oil, peanut oil): 95 % of control
- T/C (dose: 400.0 mg/kg/injection, schedule: Q04DX003 (sc), vehicle: olive oil, sesame oil, peanut oil): 110 % of control

Structure (SMILES): O=C1C=CC(=O)c2c(Cl)ccc(O)c21
- T/C (dose: 0.63 mg/kg/injection, schedule: Q01DX009 (ip), vehicle: Klucel (hydroxypropylcellulose) (HPC)): 116 % of control

Structure (SMILES): Clc1ccc(CN2CCCN(Cc3ccc(Cl)c(Cl)c3)S2)cc1Cl
- T/C (dose: 50.0 mg/kg/injection, schedule: Q01DX009 (ip), vehicle: saline with Tween-80): 101 % of control
- T/C [1]: 97 % of control
- T/C [2]: 90 % of control

Structure (SMILES): Cc1cc(N(CCCl)CCCl)ccc1C=Nc1ccccc1C(=O)O
- T/C [1]: 164 % of control
- T/C [2]: 180 % of control

Structure (SMILES): COC12C(COC(N)=O)C3=C(C(=O)C(C)=C(N4CC4)C3=O)N1CC1NC12 (stereo unspecified)
- T/C (dose: 0.21 mg/kg/injection, schedule: Q04DX003 (ip), vehicle: saline with Tween-80): 235 % of control
- T/C (dose: 0.33 mg/kg/injection, schedule: Q04DX003 (ip), vehicle: saline with Tween-80): 200 % of control
- T/C (dose: 0.5 mg/kg/injection, schedule: Q04DX003 (ip), vehicle: saline with Tween-80): 190 % of control
- T/C (dose: 0.75 mg/kg/injection, schedule: Q04DX003 (ip), vehicle: saline with Tween-80): 255 % of control

Structure (SMILES): CN=C(N)Nc1ccc(C(=O)Oc2ccc([N+](=O)[O-])cc2)cc1
- T/C (dose: 12.5 mg/kg/injection, schedule: Q01DX009 (ip), vehicle: water): 89 % of control
- T/C (dose: 25.0 mg/kg/injection, schedule: Q01DX009 (ip), vehicle: water): 95 % of control
- T/C (dose: 50.0 mg/kg/injection, schedule: Q01DX009 (ip), vehicle: water): 87 % of control
- T/C (dose: 50.0 mg/kg/injection, schedule: Q04DX003 (ip), vehicle: water): 122 % of control
- T/C (dose: 100.0 mg/kg/injection, schedule: Q04DX003 (ip), vehicle: water): 110 % of control
- T/C (dose: 200.0 mg/kg/injection, schedule: Q01DX009 (ip), vehicle: water): 105 % of control
- T/C (dose: 200.0 mg/kg/injection, schedule: Q04DX003 (ip), vehicle: water): 113 % of control

Structure (SMILES): CC1(C)c2ccccc2C(=O)C1Cc1ccccc1 (stereo unspecified)
- T/C [3]: 93 % of control
- T/C (dose: 50.0 mg/kg/injection, schedule: Q04DX003 (ip), vehicle: saline): 109 % of control
- T/C [4]: 98 % of control
- T/C (dose: 100.0 mg/kg/injection, schedule: Q04DX003 (ip), vehicle: saline): 119 % of control
- T/C [5]: 121 % of control
- T/C (dose: 200.0 mg/kg/injection, schedule: Q04DX003 (ip), vehicle: saline): 119 % of control
- T/C (dose: 400.0 mg/kg/injection, schedule: Q01DX009 (ip), vehicle: saline): 119 % of control
- T/C (dose: 400.0 mg/kg/injection, schedule: Q04DX003 (ip), vehicle: saline): 109 % of control

Structure (SMILES): O=C(CCc1ccc(O)cc1)c1c(O)cc(O)cc1OC1OC(CO)C(O)C(O)C1O (stereo unspecified)
- T/C (dose: 115.0 mg/kg/injection, schedule: Q01DX010 (ip), vehicle: saline): 100 % of control
- T/C (dose: 175.0 mg/kg/injection, schedule: Q01DX010 (ip), vehicle: saline): 109 % of control
- T/C (dose: 265.0 mg/kg/injection, schedule: Q01DX010 (ip), vehicle: saline): 100 % of control
- T/C (dose: 400.0 mg/kg/injection, schedule: Q01DX010 (ip), vehicle: saline): 95 % of control

Structure (SMILES): N#CC(O)c1ccccc1 (stereo unspecified)
- T/C (dose: 2.5 mg/kg/injection, schedule: Q01DX010 (ip), vehicle: acetone): 107 % of control
- T/C (dose: 5.0 mg/kg/injection, schedule: Q01DX010 (ip), vehicle: acetone): 92 % of control
- T/C (dose: 10.0 mg/kg/injection, schedule: Q01DX010 (ip), vehicle: acetone): 92 % of control

Structure (SMILES): CC(=O)N(C)c1ccc(Nc2cc(C)[nH]c3ccc4ncnc4c23)cc1
- T/C (dose: 50.0 mg/kg/injection, schedule: Q04DX002 (ip), vehicle: saline): 158 % of control
- T/C (dose: 100.0 mg/kg/injection, schedule: Q04DX002 (ip), vehicle: saline with Tween-80): 181 % of control
- T/C (dose: 100.0 mg/kg/injection, schedule: Q04DX002 (ip), vehicle: saline): 181 % of control

Structure (SMILES): O=c1c2ccccc2nc(-c2ccccc2Cl)n1-c1nnc(C(F)(F)F)s1
- T/C (dose: 3.12 mg/kg/injection, schedule: Q01DX009 (ip), vehicle: saline with Tween-80): 87 % of control
- T/C [6]: 89 % of control
- T/C [7]: 89 % of control

Structure (SMILES): CCCn1c2nc(=O)n(C)c(=O)c-2[n+]([O-])c2ccccc21
- T/C (dose: 6.25 mg/kg/injection, schedule: Q01DX001 (ip), vehicle: saline with Tween-80): 101 % of control
- T/C (dose: 12.5 mg/kg/injection, schedule: Q01DX001 (ip), vehicle: saline with Tween-80): 99 % of control

Structure (SMILES): CCCCCOc1cc(C(=O)NN)nc(C(=O)NN)c1
- T/C (dose: 1.56 mg/kg/injection, schedule: Q01DX009 (ip), vehicle: saline with Tween-80): 103 % of control
- T/C (dose: 3.13 mg/kg/injection, schedule: Q01DX009 (ip), vehicle: saline with Tween-80): 111 % of control
- T/C [6]: 111 % of control
- T/C [7]: 116 % of control

Structure (SMILES): C=C(CCCCC)C(=O)/C=C/c1ccc(Cl)cc1
- T/C (dose: 100.0 mg/kg/injection, schedule: Q01DX001 (ip), vehicle: Klucel (hydroxypropylcellulose) (HPC)): 109 % of control
- T/C (dose: 200.0 mg/kg/injection, schedule: Q01DX001 (ip), vehicle: Klucel (hydroxypropylcellulose) (HPC)): 109 % of control
- T/C (dose: 400.0 mg/kg/injection, schedule: Q01DX001 (ip), vehicle: Klucel (hydroxypropylcellulose) (HPC)): 118 % of control

Structure (SMILES): C[N+](C)(CC(=O)Nc1ccc(Cl)cc1)CC(=O)c1ccc(Cl)c(Cl)c1
- T/C (dose: 100.0 mg/kg/injection, schedule: Q01DX001 (ip), vehicle: saline sonified): 104 % of control
- T/C (dose: 200.0 mg/kg/injection, schedule: Q01DX001 (ip), vehicle: saline sonified): 95 % of control
- T/C (dose: 400.0 mg/kg/injection, schedule: Q01DX001 (ip), vehicle: saline sonified): 100 % of control

Structure (SMILES): O=C(Nc1ccccc1)Nc1ccc([N+](=O)[O-])cc1
- T/C (dose: 100.0 mg/kg/injection, schedule: Q04DX003 (ip), vehicle: Klucel (hydroxypropylcellulose) (HPC)): 105 % of control
- T/C (dose: 200.0 mg/kg/injection, schedule: Q04DX003 (ip), vehicle: Klucel (hydroxypropylcellulose) (HPC)): 110 % of control
- T/C (dose: 400.0 mg/kg/injection, schedule: Q04DX003 (ip), vehicle: Klucel (hydroxypropylcellulose) (HPC)): 105 % of control

Structure (SMILES): [Co].[N-]=C=S.[N-]=C=S.[N-]=C=S.[NH2-].[NH2-].[NH2-]
- T/C (dose: 12.5 mg/kg/injection, schedule: Q01DX005 (ip), vehicle: saline with Tween-80): 107 % of control
- T/C (dose: 25.0 mg/kg/injection, schedule: Q01DX005 (ip), vehicle: saline with Tween-80): 110 % of control
- T/C (dose: 50.0 mg/kg/injection, schedule: Q01DX005 (ip), vehicle: saline with Tween-80): 117 % of control
- T/C (dose: 100.0 mg/kg/injection, schedule: Q01DX001 (ip), vehicle: suspension in saline): 98 % of control
- T/C (dose: 200.0 mg/kg/injection, schedule: Q01DX001 (ip), vehicle: suspension in saline): 120 % of control
- T/C (dose: 400.0 mg/kg/injection, schedule: Q01DX001 (ip), vehicle: suspension in saline): 98 % of control

Structure (SMILES): O=S1(=O)C=CCCC=C1
- T/C (dose: 50.0 mg/kg/injection, schedule: Q01DX009 (ip), vehicle: Klucel (hydroxypropylcellulose) (HPC)): 100 % of control
- T/C (dose: 100.0 mg/kg/injection, schedule: Q01DX009 (ip), vehicle: Klucel (hydroxypropylcellulose) (HPC)): 89 % of control

Structure (SMILES): COc1cc(C(=O)N(C)C)cc(OC)c1OC
- T/C (dose: 25.0 mg/kg/injection, schedule: Q01DX009 (ip), vehicle: saline): 112 % of control
- T/C [3]: 98 % of control
- T/C [4]: 98 % of control
- T/C [5]: 101 % of control
